Measured values: patent publication US20260028354A1, “TETRAHYDRONAPHTHALENE DERIVATIVES AS ESTROGEN RECEPTOR DEGRADERS” (REGENT OF THE UNIVERSITY OF MICHIGAN, priority 2022, published 2026)
pIC50: −log10 of the molar value. Where two headings read alike, the source gives them in different places.

Assays:
[1] = Cell growth assay (WST-8) for "B" compounds; assay type: cell-based; details: T47D, read-out: Cell growth Inhibition in T47D cell line IC50
Procedure, shortened: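 Four-day compound exposure of cells plated at 1500/well the day before. Read-out is WST-8 (10%, 2.5 h, 37 °C) absorbance at 450 nm, normalized to vehicle control over three independent repeats.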

[2] = target: ER (Homo sapiens (Human), UniProt P03372); assay: In-cell western blot analysis of ER for "B" compounds; assay type: cell-based; details: 16 hours, read-out: ICW DC50
Procedure, shortened: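 ER levels given as a percentage of untreated/DMSO-treated wells (100%). Detection used primary antibodies for 2 h at room temperature followed by 680 and 800 nm fluorescent secondaries at 1:1000 for 1 h, read by LI-COR imaging.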

ER, sequence (P03372 whole entry): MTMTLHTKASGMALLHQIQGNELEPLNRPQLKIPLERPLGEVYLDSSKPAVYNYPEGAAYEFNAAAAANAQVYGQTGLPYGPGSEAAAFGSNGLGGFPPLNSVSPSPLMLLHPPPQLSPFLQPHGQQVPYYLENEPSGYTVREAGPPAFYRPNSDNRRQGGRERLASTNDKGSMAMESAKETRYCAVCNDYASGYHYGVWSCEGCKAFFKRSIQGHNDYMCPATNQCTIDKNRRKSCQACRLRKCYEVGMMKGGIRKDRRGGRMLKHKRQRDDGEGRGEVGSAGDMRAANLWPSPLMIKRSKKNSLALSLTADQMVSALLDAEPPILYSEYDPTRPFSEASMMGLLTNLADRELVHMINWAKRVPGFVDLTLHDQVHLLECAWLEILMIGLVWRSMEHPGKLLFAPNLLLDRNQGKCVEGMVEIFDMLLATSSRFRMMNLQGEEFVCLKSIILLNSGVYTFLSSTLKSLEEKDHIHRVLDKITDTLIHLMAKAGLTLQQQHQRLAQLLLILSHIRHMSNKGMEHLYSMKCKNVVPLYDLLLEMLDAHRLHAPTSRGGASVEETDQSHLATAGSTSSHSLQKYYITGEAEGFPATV

| SMILES | pIC50 ([1]; T47D cell line) | DC50 [2] [nM] | pIC50 [1] |
| --- | --- | --- | --- |
| O=C1CCC(N2Cc3cc4c(cc3C2=O)CC2(C4)CN(C[C@@H]3CCN(c4ccc([C@@H]5c6ccc(O)cc6CC[C@@H]5c5ccccc5)cc4)C3)C2)C(=O)N1 (stereo partly drawn) [Compound B217, 3-(1-(((S)-1-(4-((1R,2S)-6-hydroxy-2-phenyl-1,2,3,4-tetrahydronaphthalen-1-yl)phenyl)pyrrolidin-3-yl)methyl)-1′-oxo-5′,7′-dihydro-1'H-spiro[azetidine-3,6′-cyclopenta[f]isoindol]-2'(3'H)-yl)piperidine-2,6-dione] | 8.00 to 9.00 | > 100 | – |
| O=C1CCC(N2Cc3c(ccc4c3OC[C@H]3CN(CC(=O)N5CC(Nc6ccc([C@@H]7c8ccc(O)cc8CC[C@@H]7c7ccccc7)cc6)C5)CCN43)C2=O)C(=O)N1 (stereo partly drawn) [Compound B220, 3-((R)-7-(2-(3-((4-((1R,2S)-6-hydroxy-2-phenyl-1,2,3,4-tetrahydronaphthalen-1-yl)phenyl)amino)azetidin-1-yl)-2-oxoethyl)-1-oxo-1,3,5,5a,6,7,8,9-octahydro-2H-pyrazino[1′,2′:4,5][1,4]oxazino[2,3-e]isoindol-2-yl)piperidine-2,6-dione] | > 9.00 | > 100 | – |
| O=C1CC[C@H](NC(=O)c2ccc3c(n2)OC[C@H]2CN(CC4CCN(c5ccc([C@@H]6c7ccc(O)cc7CC[C@@H]6c6ccccc6)cc5)CC4)CCN32)C(=O)N1 [Compound B224, (R)-N-((S)-2,6-dioxopiperidin-3-yl)-3-((1-(4-((1R,2S)-6-hydroxy-2-phenyl-1,2,3,4-tetrahydronaphthalen-1-yl)phenyl)piperidin-4-yl)methyl)-1,2,3,4,4a,5-hexahydropyrazino[1,2-d]pyrido[2,3-b][1,4]oxazine-8-carboxamide] | 8.00 to 9.00 | > 100 | – |
| O=C1CC[C@H](NC(=O)c2ccc3c(n2)OC[C@H]2CN(CC4CC5(CCN(c6ccc([C@@H]7c8ccc(O)cc8CC[C@@H]7c7ccccc7)cc6)CC5)C4)CCN32)C(=O)N1 [Compound B225, (R)-N-((S)-2,6-dioxopiperidin-3-yl)-3-((7-(4-((1R,2S)-6-hydroxy-2-phenyl-1,2,3,4-tetrahydronaphthalen-1-yl)phenyl)-7-azaspiro[3.5]nonan-2-yl)methyl)-1,2,3,4,4a,5-hexahydropyrazino[1,2-d]pyrido[2,3-b][1,4]oxazine-8-carboxamide] | 8.00 to 9.00 | 10 to 100 | – |
| O=C1CC[C@H](N2Cc3cc4c(cc3C2=O)OC[C@@H]2CN(CC3COC5(CCN(c6ccc([C@@H]7c8ccc(O)cc8CC[C@@H]7c7ccccc7)cc6)CC5)C3)CCN42)C(=O)N1 (stereo partly drawn) [Compound B227, (3S)-3-((4aS)-3-((8-(4-((1R,2S)-6-hydroxy-2-phenyl-1,2,3,4-tetrahydronaphthalen-1-yl)phenyl)-1-oxa-8-azaspiro[4.5]decan-3-yl)methyl)-8-oxo-1,2,3,4,4a,5,8,10-octahydro-9H-pyrazino[1′,2′: 4,5][1,4]oxazino[2,3-f]isoindol-9-yl)piperidine-2,6-dione] | > 9.00 | < 10 | – |
| O=C1CCC(N2Cc3c(ccc4c3OCC43CCN(CC4CCC5(CC4)CN(c4ccc([C@@H]6c7ccc(O)cc7CC[C@@H]6c6ccccc6)cc4)C5)CC3)C2=O)C(=O)N1 (stereo partly drawn) [Compound B228, 3-(1′-((2-(4-((1R,2S)-6-hydroxy-2-phenyl-1,2,3,4-tetrahydronaphthalen-1-yl)phenyl)-2-azaspiro[3.5]nonan-7-yl)methyl)-6-oxo-6,8-dihydro-2H,7H-spiro[furo[2,3-e]isoindole-3,4′-piperidin]-7-yl)piperidine-2,6-dione] | – | < 10 | 8.00 to 9.00 |
| O=C1CCC(N2Cc3c(ccc4c3OCC43CCN(CC4COC5(CCN(c6ccc([C@@H]7c8ccc(O)cc8CC[C@@H]7c7ccccc7)cc6)CC5)C4)CC3)C2=O)C(=O)N1 (stereo partly drawn) [Compound B229, 3-(1′-((8-(4-((1R,2S)-6-hydroxy-2-phenyl-1,2,3,4-tetrahydronaphthalen-1-yl)phenyl)-1-oxa-8-azaspiro[4.5]decan-3-yl)methyl)-6-oxo-6,8-dihydro-2H,7H-spiro[furo[2,3-e]isoindole-3,4′-piperidin]-7-yl)piperidine-2,6-dione] | – | 10 to 100 | 8.00 to 9.00 |
| O=C1CCC(N2Cc3c(ccc4c3OC[C@H]3CN(CC5COC6(C5)CN(c5ccc([C@@H]7c8ccc(O)cc8CC[C@@H]7c7ccccc7)cc5)C6)CCN43)C2=O)C(=O)N1 (stereo partly drawn) [Compound B230, 3-((5aR)-7-((2-(4-((1R,2S)-6-hydroxy-2-phenyl-1,2,3,4-tetrahydronaphthalen-1-yl)phenyl)-5-oxa-2-azaspiro[3.4]octan-7-yl)methyl)-1-oxo-1,3,5,5a,6,7,8,9-octahydro-2H-pyrazino[1′,2′:4,5][1,4]oxazino[2,3-e]isoindol-2-yl)piperidine-2,6-dione] | > 9.00 | < 10 | – |
| O=C1CCC(N2Cc3cc4c(cc3C2=O)OC[C@@H]2CN(CC3COC5(C3)CN(c3ccc([C@@H]6c7ccc(O)cc7CC[C@@H]6c6ccccc6)cc3)C5)CCN42)C(=O)N1 (stereo partly drawn) [Compound B231, 3-((4aS)-3-((2-(4-((1R,2S)-6-hydroxy-2-phenyl-1,2,3,4-tetrahydronaphthalen-1-yl)phenyl)-5-oxa-2-azaspiro[3.4]octan-7-yl)methyl)-8-oxo-1,2,3,4,4a,5,8,10-octahydro-9H-pyrazino[1′,2′:4,5][1,4]oxazino[2,3-f]isoindol-9-yl)piperidine-2,6-dione] | > 9.00 | 10 to 100 | – |
| O=C1CCC(N2Cc3c(ccc4c3OC[C@H]3CN(CC5CC6(CCN(c7ccc([C@@H]8c9ccc(O)cc9CC[C@@H]8c8ccccc8)cc7)C6)C5)CCN43)C2=O)C(=O)N1 (stereo partly drawn) [Compound B232, 3-((R)-7-((6-(4-((1R,2S)-6-hydroxy-2-phenyl-1,2,3,4-tetrahydronaphthalen-1-yl)phenyl)-6-azaspiro[3.4]octan-2-yl)methyl)-1-oxo-1,3,5,5a,6,7,8,9-octahydro-2H-pyrazino[1′,2′:4,5][1,4]oxazino[2,3-e]isoindol-2-yl)piperidine-2,6-dione] | 8.00 to 9.00 | > 100 | – |
| O=C1CCC(N2Cc3cc4c(cc3C2=O)OC[C@@H]2CN(CC3CC5(CCN(c6ccc([C@@H]7c8ccc(O)cc8CC[C@@H]7c7ccccc7)cc6)C5)C3)CCN42)C(=O)N1 (stereo partly drawn) [Compound B233, 3-((S)-3-((6-(4-((1R,2S)-6-hydroxy-2-phenyl-1,2,3,4-tetrahydronaphthalen-1-yl)phenyl)-6-azaspiro[3.4]octan-2-yl)methyl)-8-oxo-1,2,3,4,4a,5,8,10-octahydro-9H-pyrazino[1′,2′:4,5][1,4]oxazino[2,3-f]isoindol-9-yl)piperidine-2,6-dione] | 8.00 to 9.00 | > 100 | – |
| CN1C[C@@H]2CN(CC3COC4(CCN(c5ccc([C@@H]6c7ccc(O)cc7CC[C@@H]6c6ccccc6)cc5)CC4)C3)CCN2c2cc3c(cc21)C(=O)N(C1CCC(=O)NC1=O)C3 (stereo partly drawn) [Compound B234, 3-((4aS)-3-((8-(4-((1R,2S)-6-hydroxy-2-phenyl-1,2,3,4-tetrahydronaphthalen-1-yl)phenyl)-1-oxa-8-azaspiro[4.5]decan-3-yl)methyl)-6-methyl-8-oxo-2,3,4,4a,5,6,8,10-octahydropyrazino[1,2-a]pyrrolo[3,4-g]quinoxalin-9(1H)-yl)piperidine-2,6-dione] | > 9.00 | > 100 | – |
| O=C1CCC(N2C(=O)c3cc4c(cc3C2=O)CN(CC2COC3(CCN(c5ccc([C@@H]6c7ccc(O)cc7CC[C@@H]6c6ccccc6)cc5)CC3)C2)C4)C(=O)N1 (stereo partly drawn) [Compound B235, 2-(2,6-dioxopiperidin-3-yl)-6-((8-(4-((1R,2S)-6-hydroxy-2-phenyl-1,2,3,4-tetrahydronaphthalen-1-yl)phenyl)-1-oxa-8-azaspiro[4.5]decan-3-yl)methyl)-6,7-dihydropyrrolo[3,4-f]isoindole-1,3(2H,5H)-dione] | 8.00 to 9.00 | > 100 | – |
| O=C1CC[C@H](NC(=O)c2ccc3c(n2)OC[C@H]2CN(CC4COC5(CCN(c6ccc([C@@H]7c8ccc(O)cc8CC[C@@H]7c7ccccc7)cc6)CC5)C4)CCN32)C(=O)N1 (stereo partly drawn) [Compound B236, (4aR)-N-((S)-2,6-dioxopiperidin-3-yl)-3-((8-(4-((1R,2S)-6-hydroxy-2-phenyl-1,2,3,4-tetrahydronaphthalen-1-yl)phenyl)-1-oxa-8-azaspiro[4.5]decan-3-yl)methyl)-1,2,3,4,4a,5-hexahydropyrazino[1,2-d]pyrido[2,3-b][1,4]oxazine-8-carboxamide] | > 9.00 | 10 to 100 | – |
| CN(C(=O)c1ccc2c(n1)OC[C@H]1CN(CC3COC4(CCN(c5ccc([C@@H]6c7ccc(O)cc7CC[C@@H]6c6ccccc6)cc5)CC4)C3)CCN21)C1CCC(=O)NC1=O (stereo partly drawn) [Compound B237, (4aR)-N-(2,6-dioxopiperidin-3-yl)-3-((8-(4-((1R,2S)-6-hydroxy-2-phenyl-1,2,3,4-tetrahydronaphthalen-1-yl)phenyl)-1-oxa-8-azaspiro[4.5]decan-3-yl)methyl)-N-methyl-1,2,3,4,4a,5-hexahydropyrazino[1,2-d]pyrido[2,3-b][1,4]oxazine-8-carboxamide] | 8.00 to 9.00 | > 100 | – |
| O=C1CCC(N2Cc3cc4c(cc3C2=O)OC[C@@H]2CN(CC3COC5(CCN(c6ccc([C@@H]7c8ccc(O)cc8CC[C@@H]7c7ccccc7)cc6)CC5)O3)CCN42)C(=O)N1 (stereo partly drawn) [Compound B239, 3-((4aS)-3-((8-(4-((1R,2S)-6-hydroxy-2-phenyl-1,2,3,4-tetrahydronaphthalen-1-yl)phenyl)-1,4-dioxa-8-azaspiro[4.5]decan-2-yl)methyl)-8-oxo-1,2,3,4,4a,5,8,10-octahydro-9H-pyrazino[1′,2′:4,5][1,4]oxazino[2,3-f]isoindol-9-yl)piperidine-2,6-dione] | 8.00 to 9.00 | 10 to 100 | – |
